Data: patent US20240025884A1 (Dong-A ST Co., Ltd., priority 2022, published 2024)
pIC50: −log10 of the molar value.

Biological target: GCN2 (Homo sapiens (Human), UniProt Q9P2K8)
Assay: GCN2 Biochemical Assay (TR-FRET, GFP-eIF2S1 substrate phosphorylation)
Conditions: read-out: IC50 (GCN2 Inhibitory Activity)
Outline: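 In-house GCN2 (1.6 nM 2× stock) phosphorylates GFP-eIF2S1 (50 nM 2× stock) with ATP (0.2 mM 2× stock) and tRNA, pH 7.5, 70 min at room temperature; 10-point 3.16-fold compound series. TR-FRET detection with Tb-anti-phospho antibody, 2–3 h, Ex 340/Em 490/520 nm; artifact plate spiked with phospho-substrate.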

Chain of GCN2 (Q9P2K8 whole entry): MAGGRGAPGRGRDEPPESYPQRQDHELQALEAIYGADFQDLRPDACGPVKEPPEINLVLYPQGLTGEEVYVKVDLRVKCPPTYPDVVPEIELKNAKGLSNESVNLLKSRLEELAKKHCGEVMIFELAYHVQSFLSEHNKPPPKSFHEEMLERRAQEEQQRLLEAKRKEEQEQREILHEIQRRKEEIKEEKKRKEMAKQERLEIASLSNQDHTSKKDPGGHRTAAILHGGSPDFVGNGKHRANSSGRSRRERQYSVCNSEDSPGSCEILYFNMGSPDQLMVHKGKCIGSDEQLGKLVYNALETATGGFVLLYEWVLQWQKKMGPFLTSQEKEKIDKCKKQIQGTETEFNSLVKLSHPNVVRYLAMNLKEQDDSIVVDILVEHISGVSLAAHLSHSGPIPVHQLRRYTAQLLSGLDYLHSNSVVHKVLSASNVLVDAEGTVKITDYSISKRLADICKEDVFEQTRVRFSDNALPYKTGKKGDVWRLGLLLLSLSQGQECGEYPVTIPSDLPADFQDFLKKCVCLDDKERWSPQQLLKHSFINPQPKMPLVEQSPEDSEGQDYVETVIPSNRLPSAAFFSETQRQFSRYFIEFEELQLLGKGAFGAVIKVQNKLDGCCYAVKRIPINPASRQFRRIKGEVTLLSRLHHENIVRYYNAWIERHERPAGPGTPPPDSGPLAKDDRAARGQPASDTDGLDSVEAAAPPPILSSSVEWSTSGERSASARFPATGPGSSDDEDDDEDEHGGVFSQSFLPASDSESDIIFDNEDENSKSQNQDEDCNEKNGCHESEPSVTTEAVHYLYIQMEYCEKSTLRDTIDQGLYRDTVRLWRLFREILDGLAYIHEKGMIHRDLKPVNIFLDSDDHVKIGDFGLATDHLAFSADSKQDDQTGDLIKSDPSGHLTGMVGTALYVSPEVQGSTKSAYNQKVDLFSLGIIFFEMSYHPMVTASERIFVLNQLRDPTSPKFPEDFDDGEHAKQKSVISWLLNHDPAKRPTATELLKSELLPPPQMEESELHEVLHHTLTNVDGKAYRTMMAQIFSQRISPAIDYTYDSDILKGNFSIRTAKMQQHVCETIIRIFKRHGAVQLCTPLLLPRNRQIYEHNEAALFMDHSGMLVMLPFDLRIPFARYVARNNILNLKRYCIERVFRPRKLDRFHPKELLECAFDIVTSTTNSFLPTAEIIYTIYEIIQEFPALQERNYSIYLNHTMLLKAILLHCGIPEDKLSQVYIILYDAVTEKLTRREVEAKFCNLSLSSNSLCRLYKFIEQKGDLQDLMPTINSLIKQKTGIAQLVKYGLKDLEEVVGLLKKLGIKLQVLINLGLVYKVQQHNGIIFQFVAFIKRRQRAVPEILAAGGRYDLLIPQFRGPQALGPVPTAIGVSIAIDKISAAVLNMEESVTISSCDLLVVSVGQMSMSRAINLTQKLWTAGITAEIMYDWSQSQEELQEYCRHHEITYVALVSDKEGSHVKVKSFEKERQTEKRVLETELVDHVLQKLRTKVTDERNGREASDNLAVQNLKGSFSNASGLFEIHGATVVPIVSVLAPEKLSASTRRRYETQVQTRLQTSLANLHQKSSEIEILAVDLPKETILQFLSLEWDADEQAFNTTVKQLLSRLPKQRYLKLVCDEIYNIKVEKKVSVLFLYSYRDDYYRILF

Row | Structure (SMILES) | pIC50
1 | Cc1cnc(Nc2cc(C)n(C)n2)nc1-c1c[nH]c2c(N3Cc4c(cccc4-c4cc(N5CCN(C)CC5)ccn4)C3=O)cccc12 [Example 423, 2-(3-(2-((1,5-dimethyl-1H-pyrazol-3-yl)amino)-5-methylpyrimidin-4-yl)-1H-indol-7-yl)-4-(4-(4-methylpiperazin-1-yl)pyridin-2-yl)isoindolin-1-one] | > 8.00
2 | Cc1cnc(Nc2cc(C)n(C)n2)nc1-c1c[nH]c2c(N3Cc4c(cccc4-c4cc(F)nc(F)c4)C3=O)cccc12 [Example 427, 4-(2,6-difluoropyridin-4-yl)-2-(3-(2-((1,5-dimethyl-1H-pyrazol-3-yl)amino)-5-methylpyrimidin-4-yl)-1H-indol-7-yl)isoindolin-1-one] | > 8.00
3 | Cc1cnc(Nc2cc(C)n(C)n2)nc1-c1c[nH]c2c(N3Cc4c(cccc4-c4c(F)cncc4F)C3=O)cccc12 [Example 428, 4-(3,5-difluoropyridin-4-yl)-2-(3-(2-((1,5-dimethyl-1H-pyrazol-3-yl)amino)-5-methylpyrimidin-4-yl)-1H-indol-7-yl)isoindolin-t-one] | > 8.00
4 | Cc1cnc(Nc2cc(C)n(C)n2)nc1-c1c[nH]c2c(N3Cc4c(cccc4-c4cccnc4F)C3=O)cccc12 [Example 431, 2-(3-(2-((1,5-dimethyl-1H-pyrazol-3-yl)amino)-5-methylpyrimidin-4-yl)-1H-indol-7-yl)-4-(2-fluoropyridin-3-yl)isoindolin-1-one] | > 8.00
5 | Cc1cnc(Nc2cc(C)n(C)n2)nc1-c1c[nH]c2c(N3Cc4c(cccc4-c4ccc(C#N)cc4)C3=O)cccc12 [Example 432, 4-(2-(3-(2-((1,5-dimethyl-1H-pyrazol-3-yl)amino)-5-methylpyrimidin-4-yl)-1H-indol-7-yl)-1-oxoisoindolin-4-yl)benzonitrile] | > 8.00
6 | Cc1cnc(Nc2cc(C)n(C)n2)nc1-c1c[nH]c2c(N3Cc4c(cccc4-c4ccc(C#N)cc4F)C3=O)cccc12 [Example 433, 4-(2-(3-(2-((1,5-dimethyl-1H-pyrazol-3-yl)amino)-5-methylpyrimidin-4-yl)-1H-indol-7-yl)-1-oxoisoindolin-4-yl)-3-fluorobenzonitrile] | 7.00 to 8.00
7 | Cc1cnc(Nc2cc(C)n(C)n2)nc1-c1c[nH]c2c(N3Cc4c(cccc4-c4ccccc4C(F)(F)F)C3=O)cccc12 [Example 434, 2-(3-(2-((1,5-dimethyl-1H-pyrazol-3-yl)amino)-5-methylpyrimidin-4-yl)-1H-indol-7-yl)-4-(2-(trifluoromethyl)phenyl)isoindolin-1-one] | 6.00 to 7.00
8 | COc1ncccc1-c1cccc2c1CN(c1cccc3c(-c4nc(Nc5cc(C)n(C)n5)ncc4C)c[nH]c13)C2=O [Example 435, 2-(3-(2-((1,5-dimethyl-1H-pyrazol-3-yl)amino)-5-methylpyrimidin-4-yl)-1H-indol-7-yl)-4-(2-methoxypyridin-3-yl)isoindolin-1-one] | > 8.00
9 | Cc1cnc(Nc2cc(C)n(C)n2)nc1-c1c[nH]c2c(N3Cc4c(cccc4-c4ccc(N(C)C)cc4)C3=O)cccc12 [Example 436, 2-(3-(2-((1,5-dimethyl-1H-pyrazol-3-yl)amino)-5-methylpyrimidin-4-yl)-1H-indol-7-yl)-4-(4-(dimethylamino)phenyl)isoindolin-1-one] | 7.00 to 8.00
10 | Cc1cnc(Nc2cc(C)n(C)n2)nc1-c1c[nH]c2c(N3Cc4c(cccc4-c4ccccc4CO)C3=O)cccc12 [Example 437, 2-(3-(2-((1,5-dimethyl-1H-pyrazol-3-yl)amino)-5-methylpyrimidin-4-yl)-1H-indol-7-yl)-4-(2-(hydroxymethyl)phenyl)isoindolin-1-one] | > 8.00
11 | COc1ccccc1-c1cccc2c1CN(c1cccc3c(-c4nc(Nc5cc(C)n(C)n5)ncc4C)c[nH]c13)C2=O [Example 438, 2-(3-(2-((1,5-dimethyl-1H-pyrazol-3-yl)amino)-5-methylpyrimidin-4-yl)-1H-indol-7-yl)-4-(2-methoxyphenyl)isoindolin-1-one] | 7.00 to 8.00
12 | Cc1cnc(Nc2cc(C)n(C)n2)nc1-c1c[nH]c2c(N3Cc4c(cccc4-c4ccccc4-c4ccccc4)C3=O)cccc12 [Example 439, 4-([1,1′-biphenyl]-2-yl)-2-(3-(2-((1,5-dimethyl-1H-pyrazol-3-yl)amino)-5-methylpyrimidin-4-yl)-1H-indol-7-yl)isoindolin-1-one] | < 6.00
13 | Cc1ccccc1-c1cccc2c1CN(c1cccc3c(-c4nc(Nc5cc(C)n(C)n5)ncc4C)c[nH]c13)C2=O [Example 440, 2-(3-(2-((1,5-dimethyl-1H-pyrazol-3-yl)amino)-5-methylpyrimidin-4-yl)-1H-indol-7-yl)-4-(o-tolyl)isoindolin-1-one] | 7.00 to 8.00
14 | Cc1cnc(Nc2cc(C)n(C)n2)nc1-c1c[nH]c2c(N3Cc4c(cccc4-c4ccccc4O)C3=O)cccc12 [Example 441, 2-(3-(2-((1,5-dimethyl-1H-pyrazol-3-yl)amino)-5-methylpyrimidin-4-yl)-1H-indol-7-yl)-4-(2-hydroxyphenyl)isoindolin-1-one] | 7.00 to 8.00
15 | Cc1cnc(Nc2cc(C)n(C)n2)nc1-c1c[nH]c2c(N3Cc4c(cccc4-c4ccc[nH]4)C3=O)cccc12 [Example 442, 2-(3-(2-((1,5-dimethyl-1H-pyrazol-3-yl)amino)-5-methylpyrimidin-4-yl)-1H-indol-7-yl)-4-(1H-pyrrol-2-yl)isoindolin-1-one] | 7.00 to 8.00
16 | Cc1cnc(Nc2cc(C)n(C)n2)nc1-c1c[nH]c2c(N3Cc4c(cccc4-c4cccn4C(=O)OC(C)(C)C)C3=O)cccc12 [Example 443, tert-butyl 2-(2-(3-(2-((1,5-dimethyl-1H-pyrazol-3-yl)amino)-5-methylpyrimidin-4-yl)-1H-indol-7-yl)-1-oxoisoindolin-4-yl)-1H-pyrrole-1-carboxylate] | 7.00 to 8.00
17 | Cc1cnc(Nc2cc(C)n(C)n2)nc1-c1c[nH]c2c(N3Cc4c(cccc4-c4c(C)noc4C)C3=O)cccc12 [Example 444, 2-(3-(2-((1,5-dimethyl-1H-pyrazol-3-yl)amino)-5-methylpyrimidin-4-yl)-1H-indol-7-yl)-4-(3,5-dimethylisoxazol-4-yl)isoindolin-1-one] | > 8.00

More lines, now with the values ahead:

Row | pIC50 | Structure (SMILES)
18 | > 8.00 | Cc1cnc(Nc2cc(C)n(C)n2)nc1-c1c[nH]c2c(N3Cc4c(cccc4-c4cncnc4)C3=O)cccc12 [Example 417, 2-(3-(2-((1,5-dimethyl-1H-pyrazol-3-yl)amino)-5-methylpyrimidin-4-yl)-1H-indol-7-yl)-4-(pyrimidin-5-yl)isoindolin-1-one]
19 | > 8.00 | Cc1cnc(Nc2cc(C)n(C)n2)nc1-c1c[nH]c2c(N3Cc4c(cccc4-c4cnc(N)nc4)C3=O)cccc12 [Example 418, 4-(2-aminopyrimidin-5-yl)-2-(3-(2-((1,5-dimethyl-1H-pyrazol-3-yl)amino)-5-methylpyrimidin-4-yl)-1H-indol-7-yl)isoindolin-1-one]
20 | > 8.00 | Cc1cnc(Nc2cc(C)n(C)n2)nc1-c1c[nH]c2c(N3Cc4c(cccc4-c4cncc(N)c4)C3=O)cccc12 [Example 419, 4-(5-aminopyridin-3-yl)-2-(3-(2-((1,5-dimethyl-1H-pyrazol-3-yl)amino)-5-methylpyrimidin-4-yl)-1H-indol-7-yl)isoindolin-1-one]
21 | > 8.00 | Cc1cnc(Nc2cc(C)n(C)n2)nc1-c1c[nH]c2c(N3Cc4c(cccc4-c4ccc(N)nc4)C3=O)cccc12 [Example 420, 4-(6-aminopyridin-3-yl)-2-(3-(2-((1,5-dimethyl-1H-pyrazol-3-yl)amino)-5-methylpyrimidin-4-yl)-1H-indol-7-yl)isoindolin-1-one]
22 | > 8.00 | Cc1cnc(Nc2cc(C)n(C)n2)nc1-c1c[nH]c2c(N3Cc4c(cccc4-c4ccncn4)C3=O)cccc12 [Example 421, 2-(3-(2-((1,5-dimethyl-1H-pyrazol-3-yl)anlino)-5-methylpyrimidin-4-yl)-1H-indol-7-yl)-4-(pyrimidin-4-yl)isoindolin-1-one]
23 | > 8.00 | Cc1cnc(Nc2cc(C)n(C)n2)nc1-c1c[nH]c2c(N3Cc4c(cccc4-c4ccnc(N)n4)C3=O)cccc12 [Example 422, 4-(2-aminopyrimidin-4-yl)-2-(3-(2-((1,5-dimethyl-1H-pyrazol-3-yl)amino)-5-methylpyrimidin-4-yl)-1H-indol-7-yl)isoindolin-1-one]
24 | > 8.00 | Cc1cnc(Nc2cc(C)n(C)n2)nc1-c1c[nH]c2c(N3Cc4c(cccc4-c4cnc(N5CCNCC5)nc4)C3=O)cccc12 [Example 424, 2-(3-(2-((1,5-dimethyl-1H-pyrazol-3-yl)amino)-5-methylpyrimidin-4-yl)-1H-indol-7-yl)-4-(2-(piperazin-1-yl)pyrimidin-5-yl)isoindolin-1-one]
25 | > 8.00 | Cc1cnc(Nc2cc(C)n(C)n2)nc1-c1c[nH]c2c(N3Cc4c(cccc4-c4ccc(N5CCOCC5)nc4)C3=O)cccc12 [Example 425, 2-(3-(2-((1,5-dimethyl-1H-pyrazol-3-yl)amino)-5-methylpyrimidin-4-yl)-1H-indol-7-yl)-4-(6-morpholinopyridin-3-yl)isoindolin-1-one]
26 | > 8.00 | Cc1cnc(Nc2cc(C)n(C)n2)nc1-c1c[nH]c2c(N3Cc4c(cccc4-c4ccc(N5CCN(C)CC5)cc4)C3=O)cccc12 [Example 426, 2-(3-(2-((1,5-dimethyl-1H-pyrazol-3-yl)amino)-5-methylpyrimidin-4-yl)-1H-indol-7-yl)-4-(4-(4-methylpiperazin-1-yl)phenyl)isoindolin-1-one]
27 | > 8.00 | Cc1cc(-c2cccc3c2CN(c2cccc4c(-c5nc(Nc6cc(C)n(C)n6)ncc5C)c[nH]c24)C3=O)ccn1 [Example 429, 2-(3-(2-((1,5-dimethyl-1H-pyrazol-3-yl)amino)-5-methylpyrimidin-4-yl)-1H-indol-7-yl)-4-(2-methylpyridin-4-yl)isoindolin-1-one]
28 | > 8.00 | Cc1cnc(Nc2cc(C)n(C)n2)nc1-c1c[nH]c2c(N3Cc4c(cccc4-c4ccc5c(c4)CNC5)C3=O)cccc12 [Example 430, 2-(3-(2-((1,5-dimethyl-1H-pyrazol-3-yl)amino)-5-methylpyrimidin-4-yl)-1H-indol-7-yl)-[4,5′-biisoindolin]-1-one]
